Patent publication US20240391954A1, “MC4R AGONIST PEPTIDES” (The Regents of the University of Michigan, priority 2021, published 2024)
Read-outs that look alike come from different tables or passages of the source. Positions of bridges follow the written chain, without caps; N, C: chain ends. Non-standard residues stand in square brackets, D forms with d. Residues, ends and D or L forms follow the SMILES beside them. dPhe(4-Br) = N[C@H](Cc1ccc(Br)cc1)C(=O)O; d(hPhe) = N[C@H](CCc1ccccc1)C(=O)O; Tic = O=C(O)[C@@H]1Cc2ccccc2CN1; dTic = O=C(O)[C@H]1Cc2ccccc2CN1; Cit = NC(=O)NCCC[C@H](N)C(=O)O; Nle = CCCC[C@H](N)C(=O)O; Aib = CC(C)(N)C(=O)O

Tests used:
human MC3R = biological target: T1, human MC3R (Homo sapiens, UniProt P41968); test: split-luciferase cAMP sensor assay, agonist mode (measurement window 1), hMC3R; type: cell-based; conditions: agonist mode; for EC50: read-out: MC3R cAMP EC50; for Emax: read-out: MC3R cAMP % max activation
T1 construct: expressed in transfected cells; host or cells: HEK-293 cells stably expressing the GScAMP22F split-luciferase cAMP sensor (parent reporter line from Promega); MC3R clone generated in-house, G418 selection
Description: (§1) The stable cell lines were grown and maintained in selection media consisting of Dulbecco's modified Eagle media (DMEM) with 4.5 g/l D-glucose, and 4 mM L-glutamine (Thermo Fisher Scientific, Waltham, MA), supplemented with 10% fetal bovine serum, 100 units/ml penicillin, 100 μg/ml streptomycin, 2.5 μg/ml amphotericin B, 200 μg/ml hygromycin B (for positive selection of the GScAMP22f luciferase reporter), and Geneticin™ (G418) 700 μg/ml (for MC3R or MC4R selection). Actual serum concentration during the assay is estimated to be about 1%. Cell line identity is routinely verified by qPCR and MC3R-and MC4R-specific oligonucleotides.
(§2) The assay for the determination of the cAMP response in live cells was described previously. […] Cells were seeded at a density of 20,000 cells per well using 384-well poly-D lysine-coated, clear bottom, and black-wall assay plates (Corning Inc. Corning, NJ). Cells were allowed to attach to the plates for 18 to 24 h after which growth media was removed and 20 μl of 4% D-luciferin (Promega) in CO2 independent, serum-free medium (Thermo Fisher Scientific) was added to each well. […] Intracellular cAMP levels were measured using an FDSS 7000EX Functional Drug Screening System (Hamamatsu Photonics, Hamamatsu, Japan) in the Center for Chemical Genomics at the Life Sciences Institute. This instrument allowed the in-line addition of test-peptides and receptor agonists while simultaneously acquiring the luminescence signal from live cells. […] A submaximal forskolin (20 μM) concentration was also included to serve as a normalization reference to account for cell number variations and differences in assay transducer efficiency between cell lines.
(§3) With this set up it was possible to evaluate the direct effect of the test-peptides on the MC3R and MC4R cell lines during measurement window 1, while the antagonist profile in the presence of EC90 α-MSH was determined on measurement window 2. […] EC50 or IC50 potency values were determined by non-linear regression by fitting the data to a sigmoid four-parameter variable slope model using the GraphPad Prism version 8.4 software package (San Diego CA).

human MC4R = biological target: T2, human MC4R (Homo sapiens, UniProt P32245); test: split-luciferase cAMP sensor assay, agonist mode (measurement window 1), hMC4R; type: cell-based; conditions: for MC4R cAMP % max activation / EC50 / Emax: agonist mode; for EC50: read-out: MC4R cAMP EC50; for Emax: read-out: MC4R cAMP % max activation
T2 construct: host or cells: HEK-293 cells stably expressing the GScAMP22F split-luciferase cAMP sensor and hMC4R, G418 selection
Description: as §1, §2, §3

T2 sequence (P32245 whole entry): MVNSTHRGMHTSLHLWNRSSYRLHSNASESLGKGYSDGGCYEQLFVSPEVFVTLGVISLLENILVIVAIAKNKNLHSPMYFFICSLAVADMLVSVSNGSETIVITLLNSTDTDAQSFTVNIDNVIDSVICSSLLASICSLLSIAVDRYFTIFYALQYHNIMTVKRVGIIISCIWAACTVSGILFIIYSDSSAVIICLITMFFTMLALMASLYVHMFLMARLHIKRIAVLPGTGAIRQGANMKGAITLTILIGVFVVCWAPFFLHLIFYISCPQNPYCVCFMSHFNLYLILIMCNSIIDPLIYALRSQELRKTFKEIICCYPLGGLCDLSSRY
T1 sequence (P41968 whole entry): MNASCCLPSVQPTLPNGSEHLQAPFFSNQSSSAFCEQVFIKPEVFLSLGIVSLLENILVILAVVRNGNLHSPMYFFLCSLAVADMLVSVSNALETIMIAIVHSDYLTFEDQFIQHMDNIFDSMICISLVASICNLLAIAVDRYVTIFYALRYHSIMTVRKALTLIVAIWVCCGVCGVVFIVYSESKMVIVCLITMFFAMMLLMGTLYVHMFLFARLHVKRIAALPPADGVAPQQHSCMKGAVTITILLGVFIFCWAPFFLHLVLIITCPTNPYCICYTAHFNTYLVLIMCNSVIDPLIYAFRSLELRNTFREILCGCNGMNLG

Row | Compound | MC3R cAMP % max activation (human MC3R; hMC3R stable cell line) | EC50 (human MC3R; hMC3R stable cell line) | MC4R selectivity vs MC1R (human MC4R) | MC4R selectivity vs MC3R (human MC4R) | MC4R cAMP % max activation (human MC4R; hMC4R stable cell line) | EC50 (human MC4R; hMC4R stable cell line) | Emax (human MC3R; hMC3R stable cell line) | Emax (human MC4R; hMC4R stable cell line) | Emax (human MC3R; % maximal activation) | Emax (human MC4R; % maximal activation)
1 | CCCC[C@H](NC(=O)[C@H](CCCNC(=N)N)NC(C)=O)C(=O)N[C@H]1CSSC[C@@H](C(N)=O)NC(=O)[C@H](Cc2c[nH]c3ccccc23)NC(=O)[C@H](CCCNC(=N)N)NC(=O)[C@@H](Cc2ccc(Br)cc2)NC(=O)[C@H](CCCNC(=N)N)NC1=O [CTX-1230, Arg-Nle-cyclo(Cys-Arg-D-Phe(4-Br)-Arg-Trp-Cys)] (Ac-R[Nle]CR[dPhe(4-Br)]RWC-NH2; disulfide 3-8) | (23%) | 3.9 nM | 0.18 | 1.95 | (27%) | 1.4 nM |  |  |  | 
2 | CC(=O)N[C@@H](CCCNC(=N)N)C(=O)N[C@H]1CSSC[C@@H](C(N)=O)NC(=O)[C@@H](Cc2c[nH]c3ccccc23)NC(=O)[C@H](CCCNC(N)=O)NC(=O)[C@@H](Cc2ccccc2)NC(=O)[C@H](CCCNC(=N)N)NC(=O)C(C)(C)NC1=O [CTX-1271, Arg-cyclo(Cys-Aib-Arg-D-Phe-Cit-D-Trp-Cys)] (Ac-RC[Aib]R[dF][Cit][dW]C-NH2; disulfide 2-8 (inferred)) |  |  | 2.9 | 1.63 |  | 72 nM | 16% | 95% |  | 
3 | CC(=O)N[C@@H](CCCNC(=N)N)C(=O)N[C@H]1CSSC[C@@H](C(N)=O)NC(=O)[C@@H](Cc2c[nH]c3ccccc23)NC(=O)[C@H](CCCNC(N)=O)NC(=O)[C@@H](Cc2ccc(Br)cc2)NC(=O)[C@H](CCCNC(=N)N)NC(=O)[C@@H](C)NC1=O [CTX-1253, Arg-cyclo(Cys-D-Ala-Arg-D-Phe(4-Br)-Cit-D-Trp-Cys)] (Ac-RC[dA]R[dPhe(4-Br)][Cit][dW]C-NH2; disulfide 2-8 (inferred)) |  | 4 nM | 0.57 | 0.53 |  |  | 9.2% | 58% |  | 
4 | CC(=O)N[C@@H](CCCNC(=N)N)C(=O)N[C@H]1CSSC[C@@H](C(N)=O)NC(=O)[C@@H](Cc2c[nH]c3ccccc23)NC(=O)[C@H](CCCNC(=N)N)NC(=O)[C@@H](Cc2ccccc2)NC(=O)[C@H](Cc2c[nH]cn2)NC(=O)[C@@H](C)NC1=O [CTX-1262, Arg-cyclo(Cys-D-Ala-His-D-Phe-Arg-D-Trp-Cys)] |  |  |  |  |  |  |  |  | 65% | 88%
5 | CC(=O)N[C@@H](CCCNC(=N)N)C(=O)N[C@H]1CSSC[C@@H](C(N)=O)NC(=O)[C@@H]2Cc3ccccc3CN2C(=O)[C@H](CCCNC(=N)N)NC(=O)[C@@H](Cc2ccc(Br)cc2)NC(=O)[C@H](CCCNC(=N)N)NC(=O)[C@@H](C)NC1=O [CTX-1259, Arg-cyclo(Cys-D-Ala-Arg-D-Phe(4-Br)-Arg-Tic-Cys)] (Ac-RC[dA]R[dPhe(4-Br)]R[Tic]C-NH2; disulfide 2-8 (inferred)) |  |  | 0.01 | 0.12 |  |  | 27% | 70% |  | 
6 | CC(=O)N[C@@H](CCCNC(=N)N)C(=O)N[C@H]1CSSC[C@@H](C(N)=O)NC(=O)[C@H]2Cc3ccccc3CN2C(=O)[C@H](CCCNC(=N)N)NC(=O)[C@@H](Cc2ccc(Br)cc2)NC(=O)[C@H](CCCNC(=N)N)NC(=O)[C@@H](C)NC1=O [CTX-1256, Arg-cyclo(Cys-D-Ala-Arg-D-Phe(4-Br)-Arg-D-Tic-Cys)] (Ac-RC[dA]R[dPhe(4-Br)]R[dTic]C-NH2; disulfide 2-8 (inferred)) |  |  | 0.003 | 0.08 |  |  | 17% | 29% |  | 
7 | CC(=O)N[C@@H](CCCNC(=N)N)C(=O)N[C@H]1CSSC[C@@H](C(N)=O)NC(=O)[C@H](Cc2c[nH]c3ccccc23)NC(=O)[C@H](CCCNC(=N)N)NC(=O)[C@@H](Cc2ccc(Br)cc2)NC(=O)[C@@H]2CCCN2C(=O)[C@@H](C)NC1=O [CTX-2204, Arg-cyclo(Cys-D-Ala-Pro-D-Phe(4-Br)-Arg-Trp-Cys)] (Ac-RC[dA]P[dPhe(4-Br)]RWC-NH2; disulfide 2-8 (inferred)) |  | 11 nM |  | 0.19 |  |  | 0.2% | 13% |  | 
8 | CC(=O)N[C@@H](CCCNC(=N)N)C(=O)N[C@H]1CSSC[C@@H](C(N)=O)NC(=O)[C@@H](Cc2c[nH]c3ccccc23)NC(=O)[C@H](CCCNC(=N)N)NC(=O)[C@@H](CCc2ccccc2)NC(=O)[C@H](CCCNC(=N)N)NC(=O)[C@@H](C)NC1=O [CTX-1239, Arg-cyclo(Cys-D-Ala-Arg-D-Hph-Arg-D-Trp-Cys)] (Ac-RC[dA]R[d(hPhe)]R[dW]C-NH2; disulfide 2-8) | (7.9%) |  | 0.1 | 0.3 | (28%) |  |  |  |  | 
9 | CCCC[C@H](NC(=O)[C@H](CCCNC(=N)N)NC(C)=O)C(=O)N[C@H]1CSSC[C@@H](C(N)=O)NC(=O)[C@H](Cc2c[nH]c3ccccc23)NC(=O)[C@H](CCCNC(=N)N)NC(=O)[C@@H](Cc2ccc(Br)cc2)NC(=O)[C@H](CCCNC(=N)N)NC1=O [CTX-1612, Arg-Nle-cyclo(Cys-Arg-D-Phe(4-Br)-Arg-Trp-Cys)] (Ac-R[Nle]CR[dPhe(4-Br)]RWC-NH2; disulfide 3-8 (inferred)) |  | 4.5 nM | 0.09 | 2.27 |  | 2 nM | 27% | 25% |  | 
10 | CC(=O)N[C@@H](CCCNC(=N)N)C(=O)N[C@H]1CSSC[C@@H](C(N)=O)NC(=O)[C@@H](Cc2ccccc2)NC(=O)[C@H](CCCNC(=N)N)NC(=O)[C@@H](Cc2ccc(Br)cc2)NC(=O)[C@H](CCCNC(=N)N)NC(=O)[C@@H](C)NC1=O [CTX-1255, Arg-cyclo(Cys-D-Ala-Arg-D-Phe(4-Br)-Arg-D-Phe-Cys)] (Ac-RC[dA]R[dPhe(4-Br)]R[dF]C-NH2; disulfide 2-8 (inferred)) |  |  | 0.05 | 0.24 |  |  | 28% | 60% |  | 
11 | CC(=O)N[C@@H](CCCNC(=N)N)C(=O)N[C@H]1CSSC[C@@H](C(N)=O)NC(=O)[C@@H](Cc2c[nH]c3ccccc23)NC(=O)[C@@H](CCCNC(=N)N)NC(=O)[C@@H](Cc2ccc(Br)cc2)NC(=O)[C@H](CCCNC(=N)N)NC(=O)[C@@H](C)NC1=O [CTX-1252, Arg-cyclo(Cys-D-Ala-Arg-D-Phe(4-Br)-D-Arg-D-Trp-Cys)] (Ac-RC[dA]R[dPhe(4-Br)][dR][dW]C-NH2; disulfide 2-8 (inferred)) |  |  | 0.04 | 0.06 |  |  | 1.1% | 4.4% |  | 
12 | CC(=O)N[C@@H](CCCNC(=N)N)C(=O)N[C@H]1CSSC[C@@H](C(=O)N[C@@H](CCCNC(=N)N)C(=O)N[C@H](Cc2ccccc2)C(N)=O)NC(=O)[C@@H](Cc2c[nH]c3ccccc23)NC(=O)[C@H](CCCNC(=N)N)NC(=O)[C@@H](Cc2ccc(Br)cc2)NC(=O)[C@H](CCCNC(=N)N)NC(=O)[C@@H](C)NC1=O [CTX-1222, Arg-cyclo(Cys-D-Ala-Arg-D-Phe(4-Br)-Arg-D-Trp-Cys)-Arg-D-Phe] (Ac-RC[dA]R[dPhe(4-Br)]R[dW]CR[dF]-NH2; disulfide 2-8 (inferred)) |  |  | 0.1 | 0.33 |  |  | 38% | 79% |  | 
